This passage reports IC50 results from patent publication US20260035387A1 (BIOGEN MA INC., priority 2022, published 2026).

Structures are written as SMILES.

The assay relates to mutant Huntington (HTT) protein. Briefly: HTT Mutant HTRF iPSC assay (mHTT protein lowering). The conditions noted are these: human iPSC derived from a HTT patient with a poly-Q49 mutation. The assay is classed as cell-based.

As for `Cc1cn2cc(NC(=O)c3cc4ccc(N5CC6CCC(C5)N6C)nc4s3)nc(C)c2n1` [Compound 243, N-(2,8-dimethylimidazo[1,2-a]pyrazin-6-yl)-6-(8-methyl-3,8-diazabicyclo[3.2.1]octan-3-yl)thieno[2,3-b]pyridine-2-carboxamide], the half-inhibitory concentration (IC50) was under 0.1 µM.
`Cc1cn2cc(NC(=O)c3cc4ccc(N5CC6CCC5CN6C)nc4s3)ccc2n1` (stereo not drawn) [Compound 27, 6-(5-methyl-2,5-diazabicyclo[2.2.2]octan-2-yl)-N-(2-methylimidazo[1,2-a]pyridin-6-yl)thieno[2,3-b]pyridine-2-carboxamide] yielded an IC50 of 0.1 to 1 µM.
On to `Cc1cn2cc(NC(=O)c3cc4ccc(N5C[C@@H]6[C@H](C5)[C@H]6N(C)C)nc4s3)ccc2n1` [Compound 24, 6-((1R,5S,6s)-6-(dimethylamino)-3-azabicyclo[3.1.0]hexan-3-yl)-N-(2-methylimidazo[1,2-a]pyridin-6-yl)thieno[2,3-b]pyridine-2-carboxamide], for which the IC50 was in the range of 1 to 9 µM.
As for `Cc1cn2cc(NC(=O)c3cc4ccc(C5CCCN(C)C5)nc4s3)nc(C)c2n1` (single isomer, unassigned) [Compound 187], the figure is 0.1 to 1 µM; as for `COc1cc2nn(C)cc2cc1NC(=O)c1cc2nc(C3CCN(C)CC3)ccc2o1` [Compound 269, N-(6-methoxy-2-methyl-2H-indazol-5-yl)-5-(1-methylpiperidin-4-yl)furo[3,2-b]pyridine-2-carboxamide], 0.1 to 1 µM.
As for `Cc1cn2cc(NC(=O)c3cc4cnc(N5CC[C@H](N(C)C)C5)nc4s3)cc(F)c2n1` [Compound 152, 2-[(3S)-3-(dimethylamino)pyrrolidin-1-yl]-N-(8-fluoro-2-methyl-imidazo[1,2-a]pyridin-6-yl)thieno[2,3-d]pyrimidine-6-carboxamide], the figure is 0.1 to 1 µM; as for `Cc1cn2cc(NC(=O)c3cc4ccc(OC5CCC(N(C)C)C5)nc4s3)cc(F)c2n1` (stereo not drawn) [Compound 155, 6-((3-(dimethylamino)cyclopentyl)oxy)-N-(8-fluoro-2-methylimidazo[1,2-a]pyridin-6-yl)thieno[2,3-b]pyridine-2-carboxamide], under 0.1 µM; as for `COc1cc2nn(C)cc2cc1NC(=O)c1nc2ccc(C3CCN(C)CC3)nc2s1` [Compound 135, N-(6-methoxy-2-methyl-2H-indazol-5-yl)-5-(1-methylpiperidin-4-yl)thiazolo[5,4-b]pyridine-2-carboxamide], 0.1 to 1 µM.
`Cc1cn2cc(NC(=O)c3cc4ccc(N5C[C@@H](C)N(CC(F)(F)F)[C@@H](C)C5)nc4s3)ccc2n1` [Compound 33] came in with an IC50 of 0.1 to 1 µM.
Then `Cc1cn2cc(NC(=O)c3cc4cnc(N5CC[C@H](N(C)C)C5)nc4s3)nc(C)c2n1` [Compound 151, (S)-2-(3-(dimethylamino)pyrrolidin-1-yl)-N-(2,8-dimethylimidazo[1,2-a]pyrazin-6-yl)thieno[2,3-d]pyrimidine-6-carboxamide], with 1 to 9 µM; and `CN(C)C1CCN(c2ccc3cc(C(=O)Nc4cnn5c(C(F)(F)F)ccnc45)sc3n2)C1` (stereo not drawn) [Compound 60, 6-(3-(dimethylamino)pyrrolidin-1-yl)-N-(7-(trifluoromethyl)pyrazolo[1,5-a]pyrimidin-3-yl)thieno[2,3-b]pyridine-2-carboxamide], with 1 to 9 µM.
As for `COc1cc2nn(C)cc2cc1NC(=O)c1cc2ccc(C3CCCN(C)C3)nc2s1` (single isomer, unassigned) [Compound 186], the figure is under 0.1 µM; as for `COc1nc(NC(=O)c2nc3ccc(N4CC[C@@H](N(C)C)C4)nc3s2)cn2cc(C)nc12` [Compound 117, (R)-5-(3-(dimethylamino)pyrrolidin-1-yl)-N-(8-methoxy-2-methylimidazo[1,2-a]pyrazin-6-yl)thiazolo[5,4-b]pyridine-2-carboxamide], under 0.1 µM; as for `COc1cc2nn(C)cc2cc1NC(=O)c1cc2ccc(N3CCC(N(C)C)C3)nc2s1` (stereo not drawn) [Compound 74, 6-(3-(dimethylamino)pyrrolidin-1-yl)-N-(6-methoxy-2-methyl-2H-indazol-5-yl)thieno[2,3-b]pyridine-2-carboxamide], 0.1 to 1 µM.
As for `Cc1cn2cc(NC(=O)c3cc4ccc(N5CCC(N(C)C)C5)nc4s3)ccc2n1` (stereo in doubt) [Compound 25, (R)-6-(3-(dimethylamino)pyrrolidin-1-yl)-N-(2-methylimidazo[1,2-a]pyridin-6-yl)thieno[2,3-b]pyridine-2-carboxamide], the figure is 0.1 to 1 µM; as for `Cc1cn2cc(NC(=O)c3cc4ccc(N5C[C@@H]6CCN(C)[C@@H]6C5)nc4s3)cc(F)c2n1` [Compound 66, 6-[(3aS,6aS)-1-methyl-2,3,3a,4,6,6a-hexahydropyrrolo[3,4-b]pyrrol-5-yl]-N-(8-fluoro-2-methyl-imidazo[1,2-a]pyridin-6-yl)thieno[2,3-b]pyridine-2-carboxamide], under 0.1 µM; as for `Cc1cn2cc(NC(=O)c3cc4ccc(N5CCNCC5)nc4s3)cc(F)c2n1` [Compound 75, N-(8-fluoro-2-methylimidazo[1,2-a]pyridin-6-yl)-6-(piperazin-1-yl)thieno[2,3-b]pyridine-2-carboxamide], under 0.1 µM.
Turning to `COc1c(NC(=O)c2cc3ccc(N4CCC(N5CCC5)C4)nc3s2)cc2cn(C)nc2c1F` (racemic) [Compound 180, rac-(R)-6-(3-(azetidin-1-yl)pyrrolidin-1-yl)-N-(7-fluoro-6-methoxy-2-methyl-2H-indazol-5-yl)thieno[2,3-b]pyridine-2-carboxamide], the IC50 is under 0.1 µM.
Compound `Cc1cn2cc(NC(=O)c3cc4ccc(NC5CCC6CN(C)CC65)nc4s3)ccc2n1` (stereo not drawn) [Compound 13, N-(2-methylimidazo[1,2-a]pyridin-6-yl)-6-((2-methyloctahydrocyclopenta[c]pyrrol-4-yl)amino)thieno[2,3-b]pyridine-2-carboxamide] returned an IC50 of 1 to 9 µM.
With `Cc1cn2cc(NC(=O)c3cc4ccc(N5CCC(N(C)C)C5)nc4s3)cc(C)c2n1` (stereo not drawn) [Compound 73, 6-(3-(dimethylamino)pyrrolidin-1-yl)-N-(2,8-dimethylimidazo[1,2-a]pyridin-6-yl)thieno[2,3-b]pyridine-2-carboxamide], the IC50 is 1 to 9 µM.
Then `Cc1cn2cc(NC(=O)c3cc4ccc(N5C[C@H]6CN(C)C[C@H]6C5)nc4s3)ccc2n1` [Compound 21, 6-((3aR,6aS)-5-methylhexahydropyrrolo[3,4-c]pyrrol-2(1H)-yl)-N-(2-methylimidazo[1,2-a]pyridin-6-yl)thieno[2,3-b]pyridine-2-carboxamide], with 0.1 to 1 µM; and `COc1cc(NC(=O)c2nc3ccc(N4CCC5(CCCN5C)C4)nc3s2)cn2cc(C)nc12` (stereo not drawn) [Compound 95, N-(8-methoxy-2-methylimidazo[1,2-a]pyridin-6-yl)-5-(1-methyl-1,7-diazaspiro[4.4]nonan-7-yl)thiazolo[5,4-b]pyridine-2-carboxamide], with under 0.1 µM.
Then `Cc1cn2cc(NC(=O)c3nc4ccc(N5CCNCC5)nc4s3)cc(F)c2n1` [Compound 102, N-(8-fluoro-2-methylimidazo[1,2-a]pyridin-6-yl)-5-(piperazin-1-yl)thiazolo[5,4-b]pyridine-2-carboxamide], with under 0.1 µM; and `COc1nc(NC(=O)c2nc3ccc(N4CCC(N(C)C)C4)nc3s2)cn2cc(C)nc12` (stereo not drawn) [Compound 100, 5-(3-(dimethylamino)pyrrolidin-1-yl)-N-(8-methoxy-2-methylimidazo[1,2-a]pyrazin-6-yl)thiazolo[5,4-b]pyridine-2-carboxamide], with under 0.1 µM.
As for `Cc1cn2cc(NC(=O)c3cc4ccc(N5CC[C@@H](N(C)C)C5)nc4s3)cc(F)c2n1` [Compound 55, 6-[(3R)-3-(dimethylamino)pyrrolidin-1-yl]-N-(8-fluoro-2-methyl-imidazo[1,2-a]pyridin-6-yl)thieno[2,3-b]pyridine-2-carboxamide], the figure is under 0.1 µM; as for `COc1cc(NC(=O)c2cc3ccc(N4CCC(N(C)C)C4)nc3s2)cn2cc(C)nc12` (stereo not drawn) [Compound 72, 6-(3-(dimethylamino)pyrrolidin-1-yl)-N-(8-methoxy-2-methylimidazo[1,2-a]pyridin-6-yl)thieno[2,3-b]pyridine-2-carboxamide], 0.1 to 1 µM.
As to `COc1c(NC(=O)c2nc3ccc(N4CCC5(CCCN5C)C4)nc3s2)cn2cc(C)nc2c1F` (single isomer, unassigned) [Compound 127], the IC50 was under 0.1 µM.
As for `Cc1cn2cc(NC(=O)c3cc4ccc(N5C[C@H]6CN(C)C[C@H]65)nc4s3)cc(F)c2n1` [Compound 217, N-(8-fluoro-2-methylimidazo[1,2-a]pyridin-6-yl)-6-((1R,5S)-3-methyl-3,6-diazabicyclo[3.2.0]heptan-6-yl)thieno[2,3-b]pyridine-2-carboxamide], the figure is under 0.1 µM; as for `COc1c(NC(=O)c2nc3ccc(N4CCC5(CCCN5C)C4)nc3s2)cc2cn(C)nc2c1F` (single isomer, unassigned) [Compound 124], under 0.1 µM; as for `Cc1cn2cc(NC(=O)c3cc4ncc(C5=CCNCC5)nc4s3)cc(F)c2n1` [Compound 147, N-(8-fluoro-2-methylimidazo[1,2-a]pyridin-6-yl)-3-(1,2,3,6-tetrahydropyridin-4-yl)thieno[2,3-b]pyrazine-6-carboxamide], under 0.1 µM.
Consider `Cc1cn2cc(NC(=O)c3cc4ccc(N5CC[C@@H]6CN(C)C[C@@H]65)nc4s3)nc(C)c2n1` (racemic) [Compound 194, N-(2,8-dimethylimidazo[1,2-a]pyrazin-6-yl)-6-((3aR,6aR)-5-methylhexahydropyrrolo[3,4-b]pyrrol-1(2H)-yl)thieno[2,3-b]pyridine-2-carboxamide], for which the IC50 was under 0.1 µM.
Take `COc1c(NC(=O)c2nc3ccc(N4CC[C@H](N(C)C)C4)nc3s2)cn2cc(C)nc2c1F` [Compound 91, (S)-5-(3-(dimethylamino)pyrrolidin-1-yl)-N-(8-fluoro-7-methoxy-2-methylimidazo[1,2-a]pyridin-6-yl)thiazolo[5,4-b]pyridine-2-carboxamide]: the IC50 is under 0.1 µM.
`Cc1cn2cc(NC(=O)c3cc4ccc(N5CCC6C(CCCN6C)C5)nc4s3)ccc2n1` (stereo not drawn) [Compound 36, N-(2-methylimidazo[1,2-a]pyridin-6-yl)-6-(1-methyloctahydro-1,6-naphthyridin-6(2H)-yl)thieno[2,3-b]pyridine-2-carboxamide] came in with a concentration for half-maximal inhibition (IC50) of 0.1 to 1 µM.

By IC50 is commonly meant the concentration that gives 50% inhibition. Read a high IC50 as weaker potency in that assay.
